Common to all, as to type: in vivo
The test system of test [1] is AVEFA: wild oats (Avena fatua). The test can be described thus: Pre-emergent Test I herbicidal activity. Conditions: pre-emergence, 336 h, read-out: Visual Growth Reduction (%) 14 Days After Application, AVEFA; for pest or weed control at 4000 g/ha: 4 kg ai/ha. The procedure: (§1) Pre-emergent Test I Seeds of test species were planted into round plastic pots (5-inch diameter) containing sandy loam soil. After planting, all pots were sub-irrigated 16 h prior to compound application. Compounds were dissolved in a 97:3 v/v (volume/volume) mixture of acetone and dimethyl sulfoxide (DMSO) and diluted to the appropriate concentration in a final application solution containing water, acetone, isopropanol, DMSO and Agri-dex (crop oil concentrate) in a 59:23:15:1.0:1.5 v/v ratio and 0.02% w/v (weight/volume) of Triton X-155 to obtain the spray solution containing the highest application rate. Additional application rates were obtained by serial dilution of the high rate solution with the above application solution. Formulated compound (2.7 mL) was applied pipetted evenly over the soil surface followed by incorporation with water (15 mL). Following treatment, pots were returned to the greenhouse for the duration of the experiment. The greenhouse was programmed for an approximate 15 h photoperiod which was maintained at about 23-29° C. during the day and 22-28° C. during the night. Nutrients and water were added on a regular basis through surface irrigation and supplemental lighting was provided with overhead metal halide 1000-Watt lamps as necessary. Herbicidal effect ratings were obtained 14 days after treatment. All evaluations were made relative to appropriate controls on a scale of 0 to 100 where 0 represents no herbicidal effect and 100 represents plant death or lack of emergence from the soil.

The test system of test [2] is IPOHE: ivyleaf morningglory (Ipomoea hederecea). In words: Pre-emergent Test I herbicidal activity. Conditions: pre-emergence, 336 h, read-out: Visual Growth Reduction (%) 14 Days After Application, IPOHE; for pest or weed control at 4000 g/ha: 4 kg ai/ha. The procedure:
as §1

In test [3] the test system is HELAN: sunflower (Helianthus annuus). The test can be described thus: Pre-emergent Test I herbicidal activity. The settings on record: pre-emergence, 336 h, read-out: Visual Growth Reduction (%) 14 Days After Application, HELAN; for pest or weed control at 4000 g/ha: 4 kg ai/ha. The procedure:
as §1

The test system of test [4] is SETFA: giant foxtail (Setaria faberi). The test can be described thus: Pre-emergent Test I herbicidal activity. Conditions: pre-emergence, 336 h, read-out: Visual Growth Reduction (%) 14 Days After Application, SETFA; for pest or weed control at 4000 g/ha: 4 kg ai/ha. The procedure: as §1
Test [5] has as its system ECHCG: barnyardgrass (Echinochloa crus-galli). In words: Pre-emergent Test I herbicidal activity. Conditions: pre-emergence, 336 h, read-out: Visual Growth Reduction (%) 14 Days After Application, ECHCG; for pest or weed control at 4000 g/ha: 4 kg ai/ha. The procedure:
as §1

Test [6] has as its system ALOMY: black-grass (Alopecurus myosuroides). The test can be described thus: Post-emergent Test III, herbicidal activity in wheat and barley. The settings on record: for pest or weed control at 35 g/ha / pest or weed control at 70 g/ha / pest or weed control at 140 g/ha: Alopecurus myosuroides, post-emergence, 504 h, read-out: Visual Growth Reduction (%) 21 Days After Application ALOMY; for pest or weed control at 35 g/ha: 35 g ai/ha; for pest or weed control at 70 g/ha: 70 g ai/ha; for pest or weed control at 140 g/ha: 140 g ai/ha; for GR50 ALOMY / GR80 ALOMY: probit analysis, 21 days after application; for GR50 ALOMY: dose for growth reduction of 50 percent; for GR80 ALOMY: dose for growth reduction of 80 percent. The method in brief: (§2)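 Plants at the second to third true-leaf stage, grown in a greenhouse at about 18/17 °C with a 14 h photoperiod, were sprayed post-emergence at 187 L/ha with the high rate and ½× to 1/16× serial dilutions in an acetone/DMSO/crop-oil/surfactant carrier. Injury was rated visually at 21 d on a 0–100% scale, and GR20–GR90 were derived by probit analysis.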

The test system of the next test is LAMSS. The test is described as above. Conditions: for pest or weed control at 35 g/ha / pest or weed control at 70 g/ha / pest or weed control at 140 g/ha: post-emergence, 504 h, read-out: Visual Growth Reduction (%) 21 Days After Application LAMSS; for pest or weed control at 35 g/ha: 35 g ai/ha; for pest or weed control at 70 g/ha: 70 g ai/ha; for pest or weed control at 140 g/ha: 140 g ai/ha; for GR50 LAMSS / GR80 LAMSS: probit analysis, 21 days after application; for GR50 LAMSS: dose for growth reduction of 50 percent; for GR80 LAMSS: dose for growth reduction of 80 percent. An outline of the steps:
as §2

In test [7] the test system is AMARE: redroot pigwseed (Amaranthus retroflexus). In words: Pre-emergent Test I herbicidal activity. The settings on record: pre-emergence, 336 h, 2.32 kg ai/ha, read-out: Visual Growth Reduction (%) 14 Days After Application, AMARE. As to the method:
as §1

The test system of test [8] is VERPE: bird's-eye speedwell (veronica persica). The test can be described thus: Post-emergent Test III, herbicidal activity in wheat and barley. The settings on record: for pest or weed control at 35 g/ha / pest or weed control at 70 g/ha / pest or weed control at 140 g/ha: Veronica persica, post-emergence, 504 h, read-out: Visual Growth Reduction (%) 21 Days After Application VERPE; for pest or weed control at 35 g/ha: 35 g ai/ha; for pest or weed control at 70 g/ha: 70 g ai/ha; for pest or weed control at 140 g/ha: 140 g ai/ha; for GR50 VERPE / GR80 VERPE: probit analysis, 21 days after application; for GR50 VERPE: dose for growth reduction of 50 percent; for GR80 VERPE: dose for growth reduction of 80 percent. The method in brief: as §2

The structures appear in SMILES notation. A value given as a limit tells only on which side of the number the result lay.

Here are results for 5 compounds from patent US9113629B2, “4-amino-6-(4-substituted-phenyl)-picolinates and 6-amino-2-(4-substituted-phenyl)-pyrimidine-4-carboxylates and their use as herbicides” (DOW AGROSCIENCES LLC, priority 2013, dated 2015).

Take `Nc1c(F)c(-c2ccc(Br)c(F)c2F)nc(C(=O)O)c1Cl` [Compound 147]: the pest or weed control at 3960 g/ha in [1] (3.96 kg ai/ha) lay in the range of 95 to 100%. Also, the pest or weed control at 3960 g/ha in test [2] (3.96 kg ai/ha) was 95 to 100%. Also, in test [3] (3.96 kg ai/ha), the pest or weed control at 3960 g/ha was 95 to 100%. Besides, the pest or weed control at 3960 g/ha in [4] (3.96 kg ai/ha) lay within 95 to 100%. For the same compound, in test [5] (3.96 kg ai/ha), the pest or weed control at 3960 g/ha fell in the range of 95 to 100%. In test [6], the pest or weed control at 35 g/ha lay within 60 to 74%, the pest or weed control at 70 g/ha lay within 85 to 94%, the pest or weed control at 140 g/ha lay in the range of 85 to 94% and the “GR50 ALOMY” value is 20 g ai/ha. Besides, the “GR80 ALOMY” value in test [6] is given as 47 g ai/ha. In the test on LAMSS, the pest or weed control at 35 g/ha was 85 to 94%, the pest or weed control at 70 g/ha lay in the range of 85 to 94%, the pest or weed control at 140 g/ha was in the range of 85 to 94% and the “GR50 LAMSS” value came out at 1 g ai/ha. The “GR80 LAMSS” value in the test with LAMSS was 8 g ai/ha.

Regarding `COC(=O)c1nc(-c2ccc(Br)c(F)c2F)c(F)c(N)c1Cl` [Compound 109, methyl 4-amino-6-(4-bromo-2,3-difluorophenyl)-3-chloro-5-fluoropicolinate], in [1], the pest or weed control at 4000 g/ha is 85 to 94%. The pest or weed control at 4000 g/ha in [2] lay in the range of 95 to 100%. Besides, the pest or weed control at 4000 g/ha in test [3] was in the range of 75 to 84%. The pest or weed control at 4000 g/ha in test [4] was in the range of 95 to 100%. Moreover, in [5], the pest or weed control at 4000 g/ha fell in the range of 95 to 100%. Besides, in [6], the pest or weed control at 35 g/ha is 60 to 74%, the pest or weed control at 70 g/ha was in the range of 75 to 84%, the “GR50 ALOMY” value is 22 g ai/ha and the “GR80 ALOMY” value turned out to be 88 g ai/ha. Further, in the test with LAMSS, the pest or weed control at 35 g/ha was in the range of 95 to 100%, the pest or weed control at 70 g/ha was in the range of 95 to 100%, the “GR50 LAMSS” value is 1 g ai/ha and the “GR80 LAMSS” value came out at 1 g ai/ha.

Turning to `COC(=O)c1nc(-c2ccc(I)cc2)c(F)c(N)c1Cl` [Compound 118, Methyl 4-amino-6-(4-iodophenyl)-3-chloro-5-fluoropicolinate], the pest or weed control at 2320 g/ha in test [1] (2.32 kg ai/ha) lay in the range of 95 to 100%. In addition, in test [2] (2.32 kg ai/ha), the pest or weed control at 2320 g/ha was 95 to 100%. The pest or weed control at 2320 g/ha in test [3] (2.32 kg ai/ha) was 95 to 100%. Moreover, in [7], the pest or weed control at 2320 g/ha was in the range of 95 to 100%. For the same compound, the pest or weed control at 2320 g/ha in test [5] (2.32 kg ai/ha) lay within 95 to 100%. In [8], the pest or weed control at 35 g/ha was in the range of 85 to 94%, the pest or weed control at 70 g/ha lay within 85 to 94%, the pest or weed control at 140 g/ha was in the range of 95 to 100% and the “GR50 VERPE” value stood at 5 g ai/ha. In test [8], the “GR80 VERPE” value is recorded as 17 g ai/ha. For the same compound, in test [6], the pest or weed control at 35 g/ha fell in the range of 60 to 74%, the pest or weed control at 70 g/ha was in the range of 75 to 84%, the pest or weed control at 140 g/ha was in the range of 85 to 94% and the “GR50 ALOMY” value is given as 25 g ai/ha. For the same compound, the “GR80 ALOMY” value in test [6] is on record as 60 g ai/ha. For the same compound, in the test on LAMSS, the pest or weed control at 35 g/ha fell in the range of 95 to 100%, the pest or weed control at 70 g/ha was 95 to 100%, the pest or weed control at 140 g/ha lay within 95 to 100% and the “GR50 LAMSS” value came to 1 g ai/ha. The “GR80 LAMSS” value in the test on LAMSS was found to be 0 g ai/ha.

Take `Nc1c(F)c(-c2ccc(Br)cc2)nc(C(=O)O)c1Cl` [Compound 20]: the pest or weed control at 4000 g/ha in [1] fell in the range of 95 to 100%. Besides, the pest or weed control at 4000 g/ha in [2] lay in the range of 95 to 100%. Besides, in [3], the pest or weed control at 4000 g/ha was in the range of 95 to 100%. In test [4], the pest or weed control at 4000 g/ha was in the range of 95 to 100%. Moreover, in test [5], the pest or weed control at 4000 g/ha fell in the range of 95 to 100%. In [8], the pest or weed control at 35 g/ha was in the range of 60 to 74%, the pest or weed control at 70 g/ha lay within 60 to 74%, the pest or weed control at 140 g/ha lay within 75 to 84% and the “GR50 VERPE” value is reported as 33 g ai/ha. Besides, the “GR80 VERPE” value in test [8] is given as >140 g ai/ha. Moreover, in [6], the pest or weed control at 35 g/ha fell in the range of 75 to 84%, the pest or weed control at 70 g/ha is 75 to 84%, the pest or weed control at 140 g/ha was in the range of 75 to 84% and the “GR50 ALOMY” value was 21 g ai/ha. Further, the “GR80 ALOMY” value in [6] is given as 72 g ai/ha. In the test with LAMSS, the pest or weed control at 35 g/ha was in the range of 95 to 100%, the pest or weed control at 70 g/ha lay in the range of 95 to 100%, the pest or weed control at 140 g/ha lay within 95 to 100% and the “GR50 LAMSS” value is 1 g ai/ha. For the same compound, the “GR80 LAMSS” value in the test on LAMSS worked out at 1 g ai/ha.

In the case of `C=Cc1c(C(=O)O)nc(-c2ccc(Cl)c(F)c2)c(F)c1N` [Compound 214], in [1] (4.04 kg ai/ha), the pest or weed control at 4040 g/ha was 85 to 94%. Moreover, the pest or weed control at 4040 g/ha in test [2] (4.04 kg ai/ha) was 95 to 100%. Moreover, the pest or weed control at 4040 g/ha in test [3] (4.04 kg ai/ha) was in the range of 95 to 100%. For the same compound, the pest or weed control at 4040 g/ha in test [4] (4.04 kg ai/ha) is 95 to 100%. Moreover, the pest or weed control at 4040 g/ha in test [5] (4.04 kg ai/ha) fell in the range of 95 to 100%. In test [6], the pest or weed control at 35 g/ha lay within 30 to 44%, the pest or weed control at 70 g/ha lay within 45 to 59%, the pest or weed control at 140 g/ha fell in the range of 30 to 44% and the “GR50 ALOMY” value came out at 95 g ai/ha. Further, the “GR80 ALOMY” value in [6] is reported as >140 g ai/ha. In the test on LAMSS, the pest or weed control at 35 g/ha was in the range of 75 to 84%, the pest or weed control at 70 g/ha lay within 75 to 84%, the pest or weed control at 140 g/ha fell in the range of 85 to 94% and the “GR50 LAMSS” value turned out to be 12 g ai/ha. In addition, the “GR80 LAMSS” value with LAMSS turned out to be 33 g ai/ha.
